87 compounds from a melting point compilation (Tetko et al.; mined from patent text by program, amines drawn as free bases though some values may be those of a salt) can be followed below.

The term melting point denotes the temperature, or range, at which the solid turns liquid.

`CCOC(=O)c1cc2ccc([Si](C)(C)C)cc2[nH]1`: the melting point lay in the range of 127 to 129 °C.

With `COc1cc(Cc2cnc(N)nc2N)cc(-c2ccc(O)cc2)c1OC`, the melting point was 233 °C.

The compound `OCc1cccc2nc(-c3ccccc3)oc12` yielded a melting point of 131 °C.

As for `N#Cc1c(N2CCCCC2)cc(-c2ccc3ccc4cccc5ccc2c3c45)c2c1-c1ccccc1C2`, the melting point was in the range of 114 to 116 °C.

The compound `Cc1ccc2c(n1)sc1c(S)nnnc12` gave a melting point of 205 to 208 °C.

On to `CC(CC(C)C)=Nc1cc2c(cc1F)OCC(=O)N2`, for which the melting point was 113 to 115 °C.

For `COCCOc1ccc(CN(C(=O)C2CCCc3c(O)cccc32)c2ccc(C(C)C)cc2)cn1` (configuration not stated), the melting point was 153 °C.

The compound `COc1ccc(C(=O)Oc2ccccc2)c(O)c1` came in with a melting point of 61.5 to 62.5 °C.

The compound `CCOc1cc2c(c3c1OC(C)(C)C3)C(c1cccc(C(=O)NCC(N)=O)c1)=NC(C)(C)C2` had a melting point of 127 to 128 °C.

Consider `COCCc1nc2c(N)nc3ccccc3c2n1CCCCN1CCCS1(=O)=O`, for which the melting point lay in the range of 156 to 158 °C.

`CC(=O)c1cnc2c(c1)[C@@H](NC(=O)c1ccccc1Cl)[C@H](O)C(C)(C)O2` (relative stereo) came in with a melting point of 243 to 244 °C.

As for `CN(C)CC(O)c1cc(C(F)(F)F)nc2c(C(F)(F)F)cccc12` (configuration not stated), the melting point lay within 80 to 80.7 °C.

The compound `COc1cccc(-c2ncc(C(=O)N(C)Cc3cccc(O)c3)s2)c1F` yielded a melting point of 140 °C.

`CC(=O)c1ccc2c(c1)c(=O)c(C(=O)O)cn2Cc1ccc(F)cc1` showed a melting point of 206 to 208 °C.

As to `Clc1ccc2nc3c(nc2c1)-c1cccc2cccc-3c12`, the melting point was in the range of 224 to 225 °C.

Consider `O=C1CCCCCN1CNC(=S)NCN1CCCC1=O`, for which the melting point fell in the range of 147 to 148 °C.

Compound `N#Cc1c(Cl)c2cc(Cl)ccc2n(Cc2ccccc2)c1=O` had a melting point of 243 °C.

In turn, `N#Cc1cccc(C2=NNCCC2n2cc(Cl)cn2)c1` (configuration not stated) gave a melting point of 171 °C.

The compound `COC(=O)c1ccc(C)c(-n2c(C)cc(OCc3ccc(F)cc3CNC(=O)Nc3cc(C(C)(C)C)nn3-c3ccc(O)c(Cl)c3)c(Cl)c2=O)c1` had a melting point of 197 to 200 °C.

In turn, `CCC(=O)N(Cc1ccc(OC(F)(F)F)cc1)c1cc(Cl)cc(-c2nnn[nH]2)c1` displayed a melting point of 144 °C.

Turning to `Cn1nc(C(F)(F)F)n(-c2ccc(C#Cc3ccccc3)cc2Cl)c1=S`, the melting point fell in the range of 50 to 53 °C.

Compound `COc1ccc(Cc2nc3cc(Cl)cc(CCO)c3o2)cc1OC1CCCC1` displayed a melting point of 74 to 76 °C.

On to `CCC(C)(CC)C(=O)O[C@H]1C[C@H](O)C=C2C=C[C@H](C)[C@H](CC[C@@H]3C[C@@H](O)CC(=O)O3)[C@H]21`, for which the melting point lay within 152 to 154 °C.

As for `CC(C)CCCC(C)C1CCC2C3CC=C4CCCCC4(C)C3CCC12C` (configuration not stated), the melting point lay in the range of 90 to 92 °C.

Turning to `O=C(O)c1cccnc1Oc1cccc(C(F)(F)F)c1`, the melting point is 149 to 151 °C.

Take `NCCN1C(=O)CN(c2ccc3c(c2)OCO3)C1=O`: the melting point is 171 to 173 °C.

On to `CNCC[C@H](O)c1cccs1`, for which the melting point fell in the range of 68 to 70 °C.

In turn, `CC12CCC(C(=O)O)=CC1=CCC1C2CCC2(C)C(C(=O)c3ccc(F)cc3)CCC12` (configuration not stated) yielded a melting point of 255 °C.

Regarding `Cc1ccnc(C(=O)c2[nH]c3cc(Cl)ccc3c2NC(=O)[C@H](C)O)c1`, the melting point lay within 206 to 207 °C.

Turning to `COc1ccc2c(c1OC)CC[C@H]2NC(C)=O`, the melting point came out at 175 °C.

Take `CNC(=O)C(=NOC)c1ccccc1COc1ccc2c(c1)OCC2=O`: the melting point fell in the range of 149 to 151 °C.

`CCNC(=O)n1nc(Oc2c(Cl)cc(C(F)(F)F)cc2Cl)c(CC)c1C`: the melting point lay within 120 to 123 °C.

With `CCN1C(=O)Nc2ccc(Cl)cc2C1(O)c1ccccc1` (configuration not stated), the melting point is 182 to 184 °C.

In turn, `CS(=O)(=O)Oc1ccc([N+](=O)[O-])c(OCCBr)c1` showed a melting point of 96 to 98 °C.

For `O=[N+]([O-])c1ccccc1-c1cc(F)c(F)c(F)c1`, the melting point stood at 79 °C.

With `COc1cc(C(C)=O)ccc1OCCCN1CCC(c2n[nH]c3ccccc23)CC1`, the melting point is 171 to 173 °C.

The compound `CC(=O)NCC(NC(C)=O)c1ccccc1` (configuration not stated) had a melting point of 155 to 156 °C.

`O=C1CN(c2ccc(F)cc2)CCN1` gave a melting point of 118 to 120 °C.

Compound `O=C(O)c1cccc(Nc2nc(Oc3ccccc3)nc(Oc3cccc(Cl)c3)n2)c1` gave a melting point of 227 to 230 °C.

Regarding `CCC(O)(c1ccc(OCc2cccc(C)n2)cc1)c1cc(C)ccc1C` (configuration not stated), the melting point fell in the range of 107 to 108 °C.

`CSc1sc(C(=O)N(C)C)c2c1C(=O)CC(C)(C)C2` came in with a melting point of 135 to 136 °C.

The compound `CN1CC2c3ccccc3Cc3ncccc3N2C1` (configuration not stated) showed a melting point of 127 to 129 °C.

The compound `COC(=O)c1ccc(-c2cc(CCNC(C)=O)c3cc(OC)ccc3c2)cc1` showed a melting point of 147 to 149 °C.

In turn, `CC1(C(O)=Nc2cc(Cl)cc(Cl)c2)CCC1C(=O)O` (configuration not stated) displayed a melting point of 110 to 111 °C.

`C[C@@]1(O)CCCC[C@H]1n1nc(-c2c(-c3ccccc3)nn3ccccc23)ccc1=O` (relative stereo) came in with a melting point of 197 to 198 °C.

Turning to `O=C(COc1cc(-c2ccccc2)nc2ccccc12)N1CCCC1`, the melting point came to 135 °C.

`Cn1c(CCN2CCN(c3cccc(C(F)(F)F)c3)CC2)nc2cc(Br)c3ccccc3c21`: the melting point was 165 to 166 °C.

As for `CC(CO)(Cc1c[nH]c2ccccc12)NC(=O)OC1C2CC3CC(C2)CC1C3` (configuration not stated), the melting point was 72 to 74 °C.

Regarding `CC(C)N(C(C)C)P(N)(N)=S`, the melting point was 93 to 98 °C.

For `COc1ccc(COCc2nc(C(C)C)c(Sc3cc(Cl)cc(Cl)c3)n2C)cc1`, the melting point is 79 to 80 °C.

`COc1ccc2c(c1)c(-c1[nH]c3nccnc3c1C)cn2C` came in with a melting point of 243 to 244 °C.

`CC(COc1ccc(CC2SC(=O)N(C(c3ccccc3)(c3ccccc3)c3ccccc3)C2=O)cc1)N1CC(COc2cccc(Cl)c2)OC1=O` (configuration not stated) had a melting point of 74 to 81 °C.

`COCCOc1cc2ncnc(NC3=CC(=O)C(OCc4ccccc4)=CC3=O)c2cc1OC` registered a melting point of 218 to 220 °C.

Take `Cn1c(CCC#Cc2cccc(CF)n2)nc2ccccc21`: the melting point fell in the range of 95.3 to 96.3 °C.

With `Cc1ccsc1C(=O)NCCCSc1ccncc1`, the melting point was 104 to 105 °C.

Compound `O=S(=O)(c1cnn(-c2c(Cl)cc(C(F)(F)F)cc2Cl)c1-n1cccn1)C(F)(F)F` gave a melting point of 127 to 133 °C.

`CC(C)(C)OC(=O)NCCc1ccc([N+](=O)[O-])cc1` showed a melting point of 94 to 95 °C.

In turn, `O=C(c1ccccc1)N1CC2CSCC(C2)C1` returned a melting point of 95 to 96 °C.

The compound `O=C1CCCC(=O)C1C(=O)c1ccc(Cl)c(OCCn2cnnn2)c1Cl` came in with a melting point of 46 to 54 °C.

The compound `CNc1cc(Oc2ccc3c(C(=O)Nc4cccc(C(F)(F)F)c4)cncc3c2)ncn1` showed a melting point of 205 to 208 °C.

Turning to `CN1C(=O)N(C[C@H](C(=O)O)[C@@H](CC2CCCC2)C(=O)N2CCCCC2)C(=O)C1(C)C`, the melting point lay in the range of 111 to 114 °C.

With `Cc1oc(-c2ccccc2)nc1COc1ccc(CCc2oc(-c3ccccc3)nc2CC#N)cc1`, the melting point lay within 97 to 98 °C.

Consider `O=c1c(C2=CS(=O)(=O)c3cc(NS(=O)(=O)c4ccccc4)ccc3N2)c(O)c2cc(F)ccc2n1CCC1CC1`, for which the melting point is greater than 200 °C.

On to `COC(=O)c1cccc(C(=O)c2cn(CC(=O)N(C)CCc3ccccc3)c3ccc(OCc4ccccc4)cc23)c1`, for which the melting point is 224 to 230 °C.

As to `Cc1cc(-c2csc(-c3cccc(C(=O)O)c3)n2)c(C)o1`, the melting point is 174 to 175 °C.

In turn, `O=[N+]([O-])c1ccc(S(=O)(=O)c2ccc(Cl)cc2)nc1` registered a melting point of 177 to 180 °C.

In turn, `Cc1cc(F)ccc1-c1cc(OC2SCC(O)C(O)C2O)ccn1` (configuration not stated) gave a melting point of 147 °C.

`Cc1nc(-c2ccc(Br)cc2)sc1C(=O)N[C@H](C)[C@](O)(Cn1cncn1)c1ccc(F)cc1F`: the melting point was 165 to 166 °C.

Compound `c1ccc(CN2C[C@@H]3Cc4cc5ccccc5n4C[C@@H]3C2)cc1` (relative stereo) had a melting point of 91 to 93 °C.

`CN1CCC(c2c(O)cc(O)c3c(=O)cc(-c4ccccc4Cl)oc23)C1CC#N` (configuration not stated) displayed a melting point of 107 to 108 °C.

As for `COC(=O)c1ccc(CCc2cc3cc(C#N)ccc3o2)cc1`, the melting point lay within 114 to 115 °C.

The compound `CCOC(=O)c1ncn2c1Cn1ccnc1-c1sccc1-2` had a melting point of 203 to 204 °C.

`Cc1nc(-c2ccc(C(=O)N[C@H]3CC[C@H](CCN4CCC(c5cccc6c5CCO6)CC4)CC3)cc2)no1`: the melting point was 256 °C.

Compound `COc1cc(Cc2cnc(N)nc2N)c2ccccc2c1OC` had a melting point of 228 to 230 °C.

`CC(C)C1(C)N=C(c2ncc(O)cc2C(=O)O)NC1=O` (configuration not stated) yielded a melting point of 255 to 257 °C.

`COc1cc(C(=O)NS(=O)(=O)c2ccccc2Cl)ccc1Cc1cn(C)c2ccc(CCNC(=O)N3CCOCC3)cc12` registered a melting point of 175 to 181 °C.

With `COC(=O)c1ccc(OCCCN(C(=O)c2ccc(C(C)(C)C)cc2)c2ccc(Cl)cc2)cc1`, the melting point fell in the range of 201 to 203 °C.

`O=C(c1ccc(-n2ccnc2)cc1)N1Cc2cccn2Cc2ccccc21` had a melting point of 171 to 172 °C.

For the compound `O=C1C=C(COCc2ccccc2)N=CC1OCc1ccccc1` (configuration not stated), the melting point lay within 103 to 131 °C.

Take `O=C(C1CC1)C(C(O)C(Cl)(Cl)Cl)n1cncn1` (configuration not stated): the melting point is 173 to 175 °C.

Consider `CC(C(=O)O)c1ccc2cc(OCc3ccc4ccc(Cl)cc4n3)ccc2c1` (configuration not stated), for which the melting point is 188 to 190 °C.

`Cc1n[nH]c([N+](=O)[O-])c1-c1ncc([N+](=O)[O-])n1C`: the melting point was 184 °C.

On to `COCCOCc1nn2c(-c3ccc(OC)cc3)nnc2c2ccccc12`, for which the melting point was in the range of 129 to 131 °C.

`CN(C)c1ccc2sccc2c1` returned a melting point of 52 to 54 °C.

Take `CCCCCCC(=N)NC(=S)Nc1ccc(C)cc1Cl`: the melting point lay within 78 to 80 °C.

Regarding `CCC(=O)c1cc2c(Cl)cccc2s1`, the melting point was in the range of 96 to 98 °C.

With `O=C(Nc1nc(C(Cl)(Cl)Cl)ns1)C(F)(F)F`, the melting point turned out to be 116 °C.
